Results as given in the supplement of paper PMC10307832.

Legend:
Assay in all cases: relative viability (nuclei count vs DMSO), 5 days (fraction); higher = more cells survive
[1] = compound: CC(=O)Nc1cccc(-n2c(=O)n(C3CC3)c(=O)c3c(Nc4ccc(I)cc4F)n(C)c(=O)c(C)c32)c1 [Trametinib] + CC(=O)c1c(C)c2cnc(Nc3ccc(N4CCNCC4)cn3)nc2n(C2CCCC2)c1=O [Palbociclib] (partner 0.5 µM)
Outline: (§1)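 A single step with final 0.05% Triton X-100, 1% formaldehyde and 1 ug/ml Hoechst fixed the cells and stained nuclei 5 days after treatment. Lung cancer cell lines in 1536-well plates had been treated by pin tool the day after seeding with one drug alone or a fixed anchor-drug dose plus five library-drug doses (not always all listed) in √10 steps, and nuclei were counted on 4× images. Relative viability is the ratio of nuclei in treated wells to nuclei in vehicle wells, taken as the median of duplicate plates.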

[2] = compound: CC(=O)Nc1cccc(-n2c(=O)n(C3CC3)c(=O)c3c(Nc4ccc(I)cc4F)n(C)c(=O)c(C)c32)c1 [Trametinib] + CCNC(=O)c1noc(-c2cc(C(C)C)c(O)cc2O)c1-c1ccc(CN2CCOCC2)cc1 [Luminespib] (partner 0.01 µM)
Outline: as §1

[3] = compound: CC(=O)Nc1cccc(-n2c(=O)n(C3CC3)c(=O)c3c(Nc4ccc(I)cc4F)n(C)c(=O)c(C)c32)c1 [Trametinib] + O=C(c1cc(Cc2n[nH]c(=O)c3ccccc23)ccc1F)N1CCN(C(=O)C2CC2)CC1 [Olaparib] (partner 8 µM)
Outline: as §1

[4] = compound: CN1C=C(C2=CC=CC=C21)/C=C\3/C4=C(C=CC=N4)NC3=O + Nc1ncn([C@H]2C[C@H](O)[C@@H](CO)O2)c(=O)n1 [Decitabine] (partner 2 µM)
Outline: as §1

Cell Line | relative viability ([1]; first compound 0.0025 µM) | relative viability ([1]; first compound 0.007906 µM) | relative viability ([1]; first compound 0.025 µM) | relative viability ([1]; first compound 0.07906 µM) | relative viability ([1]; first compound 0.25 µM) | relative viability ([2]; first compound 0.0025 µM) | relative viability ([2]; first compound 0.007906 µM) | relative viability ([2]; first compound 0.025 µM) | relative viability ([2]; first compound 0.07906 µM) | relative viability ([2]; first compound 0.25 µM) | relative viability ([3]; first compound 0.0025 µM) | relative viability ([3]; first compound 0.007906 µM) | relative viability ([3]; first compound 0.025 µM) | relative viability ([3]; first compound 0.07906 µM) | relative viability ([3]; first compound 0.25 µM) | relative viability ([4]; first compound 0.02 µM) | relative viability ([4]; first compound 0.06325 µM) | relative viability ([4]; first compound 0.2 µM) | relative viability ([4]; first compound 0.6325 µM) | relative viability ([4]; first compound 2 µM)
LXF-289 | 0.526 | 0.508 | 0.423 | 0.429 | 0.379 | 0.616 | 0.642 | 0.507 | 0.491 | 0.351 | 1.01 | 0.906 | 0.803 | 0.756 | 0.665 | 0.403 | 0.338 | 0.425 | 0.396 | 0.381
NCI-H2087 | 0.162 | 0.137 | 0.127 | 0.111 | 0.0967 | 0.17 | 0.137 | 0.137 | 0.141 | 0.148 | 0.463 | 0.379 | 0.249 | 0.123 | 0.18 | 0.227 | 0.239 | 0.255 | 0.326 | 0.363
PC-14 | 0.46 | 0.306 | 0.295 | 0.214 | 0.102 | 0.125 | 0.147 | 0.127 | 0.152 | 0.147 | 0.282 | 0.225 | 0.216 | 0.222 | 0.106 | 0.218 | 0.209 | 0.178 | 0.23 | 0.226
NCI-H1915 | 0.477 | 0.382 | 0.196 | 0.19 | 0.143 | 0.823 | 0.55 | 0.297 | 0.204 | 0.123 | 0.266 | 0.21 | 0.198 | 0.168 | 0.144 | 0.242 | 0.258 | 0.287 | 0.573 | 0.53
NCI-H647 | 0.374 | 0.344 | 0.334 | 0.16 | 0.108 | 0.183 | 0.12 | 0.324 | 0.209 | 0.102 | 0.481 | 0.362 | 0.491 | 0.452 | 0.218 | 0.391 | 0.314 | 0.384 | 0.327 | 0.349
NCI-H322M | 0.448 | 0.428 | 0.404 | 0.43 | 0.431 | 0.749 | 0.634 | 0.471 | 0.473 | 0.404 | 0.652 | 0.631 | 0.689 | 0.518 | 0.595 | 0.683 | 0.708 | 0.649 | 0.648 | 0.686
NCI-H2170 | 0.4 | 0.419 | – | 0.399 | 0.342 | 0.58 | 0.749 | 0.399 | 0.559 | 0.431 | 0.654 | 0.609 | – | 0.548 | 0.52 | 0.481 | 0.487 | 0.458 | 0.447 | 0.411
BEN | 0.455 | 0.479 | 0.455 | 0.475 | 0.468 | 0.269 | 0.374 | 0.154 | 0.379 | 0.377 | 1.15 | 1.04 | 0.995 | 1.01 | 1.02 | 0.691 | 0.634 | 0.513 | 0.623 | 0.781
